Test results as given in ChEMBL document CHEMBL1128972, “Synthesis of pyridinone ribonucleoside 3-O-phosphoramidites and their incorporation into oligoribonucleotides” (Bioorg Med Chem Lett, 1996).

Experiment: Cleavage rate was reported
Format: ADME

Row | Compound | K obs [min⁻¹]
1 | O=c1ccn(C2O[C@H](CO)[C@@H](O)[C@H]2O)cc1 (stereo partly drawn) | 0.095
2 | O=c1ccccn1C1O[C@H](CO)[C@@H](O)[C@H]1O (stereo partly drawn) | 2.01
3 | O=c1ccn([C@@H]2O[C@H](CO)[C@@H](O)[C@H]2O)c(=O)[nH]1 [URIDINE] | 1.17
